Measurements reported in patent US8795222B2, “Device and method for treatment of surface infections with nitric oxide” (Pulmonox Technologies Corp., priority 2000, dated 2014).

Key:
Mycobacterium = experiment: Bacteriocidal time study, 200 ppm gNO, saline suspension; assay type: cell-based, M. smegmatis
Protocol: Following the dose and time ranging studies, a series of experiments were performed to determine the time required to effectively induce a bacteriocidal effect with 200 parts per million of gNO, a concentration just above the dose used in the dose-ranging study, on a representative collection of drug resistant gram-positive and gram-negative strains of bacteria associated with clinical infection. A successful bacteriocidal effect was defined as a decrease in bacteria greater than 3 log10 cfu/ml. Further, C. albicans, Methicillin Resistant S. aureus (MRSA), a particularly resistant strain of P. aeruginosa from a cystic fibrosis patient, Group B Streptococcus, and M. smegmatis were also included to see if yeast, multi-drug resistant strains of bacteria, and actinomycetes have a similar response. The drug-resistant bacteria represent a variety of pathogens that contribute to both respiratory and wound infections.
For these experiments, saline was selected as a suspension media because it would not mask the direct effect of gNO as a bacteriocidal, whereas fully supplemented growth medium might introduce external variables (e.g., buffer or react with gNO). Other media might also provide metabolites and replenish nutrients that produce enzymes that protect bacteria from oxidative and nitrosative damage, thereby masking the effect of gNO. […] In saline, the colonies were static but remained viable. This is similar to the approach of Webert and Jean's use of animal models. Webert K E, et al (2000), Effects of inhaled nitric oxide in a rat model of Pseudomonas aeruginosa pneumonia, Crit. Care Med, 28(7):2397-2405 and Jean D, et al., (2002) Beneficial effects of nitric oxide inhalation on pulmonary bacterial clearance, Critical Care Medicine. 30(2):442-7.
The latent period was then followed by an abrupt death of all cells. Gram negative and gram positive bacteria, antibiotic resistant bacterial strains, yeast and mycobacteria were all susceptible to 200 ppm gNO. Of importance, is the observation that the two drug resistant bacteria strains were also susceptible. […]

P. aeruginosa = experiment: gNO dose study, colony growth on agar plates; assay type: cell-based
Protocol: FIG. 7 depicts a Pseudomonas aeruginosa dosage curve for exposure to NO gas with bacteria grown on solid media. Relative percentages of growth of P. aeruginosa colony forming units (cfu) at 50, 80, 120 and 160 parts per million (ppm) of nitric oxide compared with growth of P. aeruginosa cfu in medical air (100%) are shown.
To study the effects of gaseous nitric oxide on potential pathogens, a custom gas exposure incubator was designed and validated for temperature, humidity, and gas concentrations, providing an environment that matches that of a microbiologic incubator, while enabling controlled exposure of precise concentrations of the gas. […] The gNO chamber allowed control and adjustment of following factors in all in vitro studies: gNO dose, total air flow, NO2 levels, O2 levels, CO2 levels, temperature, and humidity. For the initial pilot studies, two strains of bacterial pathogen were selected based on two proposed clinical applications of gNO for respiratory infections and topical application. P. aeruginosa is associated primarily with pulmonary disease, but may also be associated with skin infection such as in severe burns. S. aureus is associated with surface wound infections. Both of these micro-organisms were chosen for the pilot study.
The first step in the process of evaluating the direct effect of gNO on bacteria was to design a simple study to determine what dose, if any, would be an approximate lethal concentration level for microbes. Once an optimal dose was estimated, then a timing study would be conducted. For these initial studies, highly dense inoculums of P. aeruginosa and S. aureus suspensions (10^8 cfu/ml) were plated onto agar plates. These plates were then exposed to various concentrations of gNO in the exposure device in order to evaluate the effect on colony growth.

[N]=O [gNO, nitric oxide]
LD100 (Mycobacterium): 10 h
Latent Period* (Mycobacterium): 7 h
−2.5 Log10 (Mycobacterium; time to −2.5 log10 cfu/ml): 9.2 hrs
colony size and number after transfer to a conventional incubator (P. aeruginosa; 24 hours after gNO exposure, controls overgrew): remained the same in size and number
time required to achieve the >90% reduction of colony formation (P. aeruginosa; gNO greater than 120 ppm, agar plates): 8 to 12 h
reduction of colony formation (P. aeruginosa; gNO greater than 120 ppm, agar plates, compared with medical air): greater than 90%
survival (P. aeruginosa; increasing gNO to 120 ppm, agar plates): 5-10%
